We go through 12 molecules from US11053239B2, “Compounds as BLC-2-selective apoptosis-inducing agents” (Fochon Pharmaceuticals, Ltd., priority 2017, dated 2021).

One experiment deals with RS4; 11 cells. Description: Cell proliferation assay (MTS), RS4; 11 cells. In kind it is cell-based. Particulars: RS4, 11 (ATCC CRL-1873) cell proliferation, 30000 cells/well, 72 h, MTS, mechanism-based readout of Bcl-2 inhibition, read-out: RS4, 11 IC50. The method in brief: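 RS4;11 (30000 cells/well, 72 h) and DOHH2 (5000 cells/well, 120 h) cells in RPMI-1640/10% FBS, treated at 37 °C with compound at 1.5–10000 nM final. Viability by MTS (2 h, SDS stop), absorbance 490 nm minus 650 nm reference; IC50 fitted.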

Another experiment has as its system DOHH2 cells. Description: Cell proliferation assay (MTS), DOHH2 cells. The format is cell-based. Conditions: DOHH2 (DSMZ ACC 47) cell proliferation, 5000 cells/well, 120 h, MTS, mechanism-based readout of Bcl-2 inhibition, read-out: DOHH2 IC50. From the text:
MTS testing kit was purchased from Promega. The RPMI-1640, Fetal bovine serum and Penicillin-Streptomycin were purchased from Gibco. Dimethyl sulfoxide (DMSO) was purchased from Sigma.
To investigate whether a compound is able to inhibit the activity of Bcl-2 in cells, a mechanism-based assay using DOHH2 (DSMZ No.® ACC 47) and RS4; 11 (ATCC® CRL-1873™) cell was developed. In this assay, inhibition of Bcl-2 was detected by the inhibition of DOHH2 and RS4; 11 cells proliferation. DOHH2 and RS4; 11 cells were cultured in culture flasks to 40-80% confluence in RPMI-1640 plus 10% fetal bovine serum. Cells were collected and plated onto 96-well plates at desired cell density (DOHH2: 5000 cells/well; RS4; 11: 30000 cells/well). Plates were incubated overnight at 37° C., with 5% CO2 to adhere. Compounds were added to the plates, and the final compound concentrations were 10000, 3333, 1111, […], 124, 41, 14, 4.6 and 1.5 nM. Plates plated with DOHH2 or RS4; 11 cells were placed at 37° C., with 5% CO2 for 120 h (DOHH2) or 72 h (RS4; 11) respectively. 20 μl MTS/100 μl medium mixture solution were added to each well and incubate the plates for exactly 2 hours. The reaction was stopped by adding 25 μl 10% SDS per well. Measure absorbance at 490 nm and 650 nm (reference wavelength). ICso was calculated using GraphPad Prism 5.0.

SMILES strings stand for the structures. pIC50: −log10 of the molar value. Read-outs that look alike come from different tables or passages of the source.

For `CCS(=O)(CC)=NC1CC(CNc2ccc(S(=O)(=O)NC(=O)c3ccc(N4CCN(CC5=C(c6ccc(Cl)cc6)CC(C)(C)CC5)CC4)cc3Oc3cnc4[nH]ccc4c3)cc2[N+](=O)[O-])C1` (stereo not drawn) [Example 60, 2-((1H-pyrrolo[2,3-b]pyridin-5-yl)oxy)-4-(4-((4′-chloro-5,5-dimethyl-3,4,5,6-tetrahydro-[1,1′-biphenyl]-2-yl)methyl)piperazin-1-yl)-N-((4-(((3-((diethyl(oxo)-λ^6-sulfanylidene)amino)cyclobutyl)methyl)amino)-3-nitrophenyl)sulfonyl)benzamide], the pIC50 in the experiment with RS4; 11 cells (Homo sapiens, RS4-11, 72 h) was 7.68; in the experiment with DOHH2 cells (Homo sapiens, DOHH-2, 120 h), 7.31.

Take `CC1(C)CCC(CN2CCN(c3ccc(C(=O)NS(=O)(=O)c4ccc(NCC5CCC(NS(C)(=N)=O)CC5)c([N+](=O)[O-])c4)c(Oc4cnc5[nH]ccc5c4)c3)CC2)=C(c2ccc(Cl)cc2)C1` (stereo not drawn) [Example 56, 4-(4-{[2-(4-chlorophenyl)-4,4-dimethylcyclohexyl-1-en-1-yl]methyl}piperazin-1-yl)-N-(4-{[(4-methanesulfono-imidamidocyclohexyl)methyl]amino}-3-nitrobenzenesulfonyl)-2-{1H-pyrrolo[2,3-b]pyridine-5-yloxy}benzamide]: the values for the pIC50 in the experiment on RS4; 11 cells and with DOHH2 cells were 7.92 and 7.30, respectively.

For `CC(C)OC(=O)N=S1(=O)CCN(CC[C@H](C)Nc2ccc(S(=O)(=O)NC(=O)c3ccc(N4CCN(CC5=C(c6ccc(Cl)cc6)CC(C)(C)CC5)CC4)cc3Oc3cnc4[nH]ccc4c3)cc2[N+](=O)[O-])CC1` [Example 86, isopropyl (S)-(4-(3-((4-(N-(2-((1H-pyrrolo[2,3-b]pyridin-5-yl)oxy)-4-(4-((4′-chloro-5,5-dimethyl-3,4,5,6-tetrahydro-[1,1′-biphenyl]-2-yl)methyl)piperazin-1-yl)benzoyl)sulfamoyl)-2-nitrophenyl)amino)butyl)-1-oxido-1λ^6-thiomorpholin-1-ylidene) carbamate], the pIC50 with RS4; 11 cells (Homo sapiens, RS4-11, 72 h) is 7.64; in the experiment with DOHH2 cells (Homo sapiens, DOHH-2, 120 h), 7.46.

As for `CC(C)C(=O)N=S1(=O)CCN(CC[C@H](C)Nc2ccc(S(=O)(=O)NC(=O)c3ccc(N4CCN(CC5=C(c6ccc(Cl)cc6)CC(C)(C)CC5)CC4)cc3Oc3cnc4[nH]ccc4c3)cc2S(=O)(=O)C(F)(F)F)CC1` [Example 90, (S)-2-((1H-pyrrolo[2,3-b]pyridin-5-yl)oxy)-4-(4-((4′-chloro-5,5-dimethyl-3,4,5,6-tetrahydro-[1,1′-biphenyl]-2-yl)methyl)piperazin-1-yl)-N-((4-((4-(1-(isobutyrylimino)-1-oxido-1λ^6-thiomorpholino)butan-2-yl)amino)-3-((trifluoromethyl)sulfonyl)phenyl)sulfonyl) benzamide], the pIC50 was 6.94 with RS4; 11 cells (Homo sapiens, RS4-11, 72 h) and 6.65 in the experiment on DOHH2 cells (Homo sapiens, DOHH-2, 120 h).

Regarding `CC1(C)CCC(CN2CCN(c3ccc(C(=O)NS(=O)(=O)c4ccc(NCCN5CCS(=O)(=NC6CC6)CC5)c([N+](=O)[O-])c4)c(Oc4cnc5[nH]ccc5c4)c3)CC2)=C(c2ccc(Cl)cc2)C1` [Example 35, 2-((1H-pyrrolo[2,3-b]pyridin-5-yl)oxy)-4-(4-((4′-chloro-5,5-dimethyl-3,4,5,6-tetrahydro-[1,1′-biphenyl]-2-yl)methyl)piperazin-1-yl)-N-((4-((2-(1-(cyclopropylimino)-1-oxido-1λ^6-thiomorpholino)ethyl)amino)-3-nitrophenyl)sulfonyl)benzamide], the pIC50 in the experiment on RS4; 11 cells (Homo sapiens, RS4-11, 72 h) is 7.22; in the experiment with DOHH2 cells (Homo sapiens, DOHH-2, 120 h), 6.74.

With `COC(=O)N=S1(=O)CCC(CNc2ccc(S(=O)(=O)NC(=O)c3ccc(N4CCN(CC5=C(c6ccc(Cl)cc6)CC(C)(C)CC5)CC4)cc3Oc3cnc4[nH]ccc4c3)cc2[N+](=O)[O-])CC1` (stereo not drawn) [Example 61, methyl(4-(((4-(N-(2-((1H-pyrrolo[2,3-b]pyridin-5-yl)oxy)-4-(4-((4′-chloro-5,5-dimethyl-3,4,5,6-tetrahydro-[1,1′-biphenyl]-2-yl)methyl)piperazin-1-yl)benzoyl)sulfamoyl)-2-nitrophenyl)amino)methyl)-1-oxidotetrahydro-2H-1λ^6-thiopyran-1-ylidene) carbamate], the pIC50 in the experiment with RS4; 11 cells (Homo sapiens, RS4-11, 72 h) is 7.25; in the experiment with DOHH2 cells (Homo sapiens, DOHH-2, 120 h) it was 6.79.

On to `CC1(C)CCC(CN2CCN(c3ccc(C(=O)NS(=O)(=O)c4ccc(NCCN5CCP(C)(=O)CC5)c([N+](=O)[O-])c4)c(Oc4cnc5[nH]ccc5c4)c3)CC2)=C(c2ccc(Cl)cc2)C1` [Example 2, 2-((1H-pyrrolo[2,3-b]pyridin-5-yl)oxy)-4-(4-((4′-chloro-5,5-dimethyl-3,4,5,6-tetrahydro-[1,1′-biphenyl]-2-yl)methyl)piperazin-1-yl)-N-((4-((2-(4-methyl-4-oxido-1,4-azaphosphinan-1-yl)ethyl)amino)-3-nitrophenyl)sulfonyl)benzamide], for which the pIC50 is 6.79 with RS4; 11 cells (Homo sapiens, RS4-11, 72 h) and 6.37 in the experiment on DOHH2 cells (Homo sapiens, DOHH-2, 120 h).

With `CC1(C)CCC(CN2CCN(c3ccc(C(=O)NS(=O)(=O)c4ccc(NCC5CCC(N=S(C)(C)=O)CC5)c([N+](=O)[O-])c4)c(Oc4cnc5[nH]ccc5c4)c3)CC2)=C(c2ccc(Cl)cc2)C1` (single isomer, unassigned) [Example 50A, 2-((1H-pyrrolo[2,3-b]pyridin-5-yl)oxy)-4-(4-((4′-chloro-5,5-dimethyl-3,4,5,6-tetrahydro-[1,1′-biphenyl]-2-yl)methyl)piperazin-1-yl)-N-((4-(((4-((dimethyl(oxo)-λ^6-sulfanylidene)amino)cyclohexyl)methyl)amino)-3-nitrophenyl)sulfonyl) benzamide], the pIC50 was 8.52 in the experiment with RS4; 11 cells (Homo sapiens, RS4-11, 72 h) and 8.46 with DOHH2 cells.

With `CCN=S1(=O)CCC(CNc2ccc(S(=O)(=O)NC(=O)c3ccc(N4CCN(CC5=C(c6ccc(Cl)cc6)CC(C)(C)CC5)CC4)cc3Oc3cnc4[nH]ccc4c3)cc2[N+](=O)[O-])CC1` (stereo not drawn) [Example 30, 2-((1H-pyrrolo[2,3-b]pyridin-5-yl)oxy)-4-(4-((4′-chloro-5,5-dimethyl-3,4,5,6-tetrahydro-[1,1′-biphenyl]-2-yl)methyl)piperazin-1-yl)-N-((4-(((1-(ethylimino)-1-oxidohexahydro-1λ^6-thiopyran-4-yl)methyl)amino)-3-nitrophenyl)sulfonyl) benzamide], the pIC50 in the experiment with RS4; 11 cells (Homo sapiens, RS4-11, 72 h) was 7.37; in the experiment with DOHH2 cells (Homo sapiens, DOHH-2, 120 h), 6.88.

In the case of `CCOC(=O)N=S1(=O)CCN(C[C@H](C)Nc2ccc(S(=O)(=O)NC(=O)c3ccc(N4CCN(CC5=C(c6ccc(Cl)cc6)CC(C)(C)CC5)CC4)cc3Oc3cnc4[nH]ccc4c3)cc2S(=O)(=O)C(F)(F)F)CC1` [Example 76, ethyl (S)-(4-(2-((4-(N-(2-((1H-pyrrolo[2,3-b]pyridin-5-yl)oxy)-4-(4-((4′-chloro-5,5-dimethyl-3,4,5,6-tetrahydro-[1,1′-biphenyl]-2-yl)methyl)piperazin-1-yl)benzoyl)sulfamoyl)-2-((trifluoromethyl)sulfonyl)phenyl)amino)propyl)-1-oxido-1λ^6-thiomorpholin-1-ylidene) carbamate], the pIC50 in the experiment with RS4; 11 cells (Homo sapiens, RS4-11, 72 h) was 6.68; in the experiment on DOHH2 cells (Homo sapiens, DOHH-2, 120 h), 6.61.

Consider `CN=S1(=O)CCN(CC[C@H](C)Nc2ccc(S(=O)(=O)NC(=O)c3ccc(N4CCN(CC5=C(c6ccc(Cl)cc6)CC(C)(C)CC5)CC4)cc3Oc3cnc4[nH]ccc4c3)cc2[N+](=O)[O-])CC1` [Example 94, (S)-2-((1H-pyrrolo[2,3-b]pyridin-5-yl)oxy)-4-(4-((4′-chloro-5,5-dimethyl-3,4,5,6-tetrahydro-[1,1′-biphenyl]-2-yl)methyl)piperazin-1-yl)-N-((4-((4-(1-(methylimino)-1-oxido-1λ^6-thiomorpholino)butan-2-yl)amino)-3-nitrophenyl)sulfonyl) benzamide], for which the pIC50 with RS4; 11 cells (Homo sapiens, RS4-11, 72 h) is 7.57; with DOHH2 cells (Homo sapiens, DOHH-2, 120 h), 7.82.

For `CCS(=O)(CC)=NC1CCC(CNc2ccc(S(=O)(=O)NC(=O)c3ccc(N4CCN(CC5=C(c6ccc(Cl)cc6)CC(C)(C)CC5)CC4)cc3Oc3cnc4[nH]ccc4c3)cc2[N+](=O)[O-])CC1` (stereo not drawn) [Example 9A, 2-((1H-pyrrolo[2,3-b]pyridin-5-yl)oxy)-4-(4-((4′-chloro-5,5-dimethyl-3,4,5,6-tetrahydro-[1,1′-biphenyl]-2-yl)methyl)piperazin-1-yl)-N-((4-((((1r,4r)-4-((diethyl(oxo)-λ^6-sulfanylidene)amino)cyclohexyl)methyl)amino)-3-nitrophenyl)sulfonyl)benzamide], the pIC50 is 8.40 with RS4; 11 cells (Homo sapiens, RS4-11, 72 h) and 7.17 in the experiment with DOHH2 cells (Homo sapiens, DOHH-2, 120 h).
